According to US11566022B2, “3-(5-methoxy-1-oxoisoindolin-2-yl)piperidine-2,6-dione derivatives and uses thereof” (NOVARTIS AG, priority 2019, dated 2023):
Like-named read-outs stand apart in the source and are kept apart here.

Target: HiBit-WIZ fusion protein (Homo sapiens, UniProt O95785+Q96SW2)
Assay: Quantification of WIZ protein levels in HiBit tag fusion protein assay (WIZ HiBit assay in 293T cells)
Assay type: cell-based
Set-up: Dmax: dose or concentration left out as unconfirmed
[1] = HEK-293T, 100 minus Amax; 293T cells; read-out: % degradation of WIZ (100-Amax)
[2] = HEK-293T, DMSO-normalized, curve-fitted percentage of WIZ-HiBit remaining at 25 uM; 293T cells; read-out: WIZ Amax
[3] = WIZ HiBit assay in 293T cells; 10-point, 5-fold dose response, highest concentration 25 μM, about 18 hours; read-out: WIZ AC50
[4] = HEK-293T, read-out: % degradation of WIZ (100-Amax)
[5] = read-out: WIZ AC50; WIZ HiBit assay in 293T cells; 10-point, 5-fold dose response, highest concentration 25 μM, about 18 hours

Chain of HiBit-WIZ fusion protein (O95785 whole entry, the tested form may be a part): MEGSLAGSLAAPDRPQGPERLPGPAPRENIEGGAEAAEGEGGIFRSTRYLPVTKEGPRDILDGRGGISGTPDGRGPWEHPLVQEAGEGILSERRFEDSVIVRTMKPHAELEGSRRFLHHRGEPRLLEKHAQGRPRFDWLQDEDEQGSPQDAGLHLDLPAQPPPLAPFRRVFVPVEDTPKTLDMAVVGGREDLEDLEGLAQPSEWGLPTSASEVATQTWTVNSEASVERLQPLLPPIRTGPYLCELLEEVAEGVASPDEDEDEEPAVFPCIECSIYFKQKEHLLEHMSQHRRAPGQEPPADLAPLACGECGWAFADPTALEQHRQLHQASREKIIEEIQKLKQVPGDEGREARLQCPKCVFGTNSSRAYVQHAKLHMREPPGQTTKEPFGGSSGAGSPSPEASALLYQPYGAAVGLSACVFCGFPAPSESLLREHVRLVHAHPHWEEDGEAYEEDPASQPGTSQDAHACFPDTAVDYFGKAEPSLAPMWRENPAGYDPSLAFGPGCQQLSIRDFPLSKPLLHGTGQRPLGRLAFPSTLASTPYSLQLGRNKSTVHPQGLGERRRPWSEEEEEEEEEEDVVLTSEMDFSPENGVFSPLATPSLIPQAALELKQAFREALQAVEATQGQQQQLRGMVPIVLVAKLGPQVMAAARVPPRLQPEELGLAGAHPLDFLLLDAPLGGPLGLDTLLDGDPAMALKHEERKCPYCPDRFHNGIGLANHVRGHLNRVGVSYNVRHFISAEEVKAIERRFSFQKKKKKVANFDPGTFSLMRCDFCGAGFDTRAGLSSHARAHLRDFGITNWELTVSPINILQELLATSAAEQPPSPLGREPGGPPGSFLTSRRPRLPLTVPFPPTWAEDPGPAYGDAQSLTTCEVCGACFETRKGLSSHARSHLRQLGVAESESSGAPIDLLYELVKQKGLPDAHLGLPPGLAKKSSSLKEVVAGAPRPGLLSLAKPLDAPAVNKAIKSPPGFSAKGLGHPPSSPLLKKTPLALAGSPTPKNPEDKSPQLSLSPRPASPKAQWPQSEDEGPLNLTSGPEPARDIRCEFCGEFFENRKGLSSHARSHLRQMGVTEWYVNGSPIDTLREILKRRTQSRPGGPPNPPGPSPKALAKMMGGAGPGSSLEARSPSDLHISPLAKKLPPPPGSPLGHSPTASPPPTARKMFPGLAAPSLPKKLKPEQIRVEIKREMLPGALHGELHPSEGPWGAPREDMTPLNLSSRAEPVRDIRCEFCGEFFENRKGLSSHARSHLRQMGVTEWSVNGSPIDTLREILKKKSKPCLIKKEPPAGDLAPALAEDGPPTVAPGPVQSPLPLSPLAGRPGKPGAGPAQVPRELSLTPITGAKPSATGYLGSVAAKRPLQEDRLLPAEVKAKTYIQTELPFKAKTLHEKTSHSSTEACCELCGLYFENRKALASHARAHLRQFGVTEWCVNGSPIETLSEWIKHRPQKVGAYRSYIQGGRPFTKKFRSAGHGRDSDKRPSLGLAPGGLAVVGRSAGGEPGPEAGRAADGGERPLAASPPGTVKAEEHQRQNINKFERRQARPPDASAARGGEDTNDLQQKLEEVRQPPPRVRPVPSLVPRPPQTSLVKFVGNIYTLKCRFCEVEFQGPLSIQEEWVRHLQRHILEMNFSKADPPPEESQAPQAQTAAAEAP
Chain of HiBit-WIZ fusion protein (Q96SW2 whole entry, the tested form may be a part): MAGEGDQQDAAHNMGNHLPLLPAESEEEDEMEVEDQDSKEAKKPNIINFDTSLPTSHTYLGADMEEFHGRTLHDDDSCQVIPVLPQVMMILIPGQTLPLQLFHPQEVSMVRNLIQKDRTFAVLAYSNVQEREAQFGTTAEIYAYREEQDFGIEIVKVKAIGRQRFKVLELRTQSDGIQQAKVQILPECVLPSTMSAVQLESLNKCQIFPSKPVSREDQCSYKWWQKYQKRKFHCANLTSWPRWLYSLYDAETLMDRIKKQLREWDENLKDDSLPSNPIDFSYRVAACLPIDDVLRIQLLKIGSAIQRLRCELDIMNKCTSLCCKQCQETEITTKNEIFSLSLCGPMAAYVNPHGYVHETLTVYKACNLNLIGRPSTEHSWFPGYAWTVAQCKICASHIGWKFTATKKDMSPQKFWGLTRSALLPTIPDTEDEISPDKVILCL
Chain of HiBit-WIZ fusion protein (Q16531 whole entry partner, the tested form may be a part): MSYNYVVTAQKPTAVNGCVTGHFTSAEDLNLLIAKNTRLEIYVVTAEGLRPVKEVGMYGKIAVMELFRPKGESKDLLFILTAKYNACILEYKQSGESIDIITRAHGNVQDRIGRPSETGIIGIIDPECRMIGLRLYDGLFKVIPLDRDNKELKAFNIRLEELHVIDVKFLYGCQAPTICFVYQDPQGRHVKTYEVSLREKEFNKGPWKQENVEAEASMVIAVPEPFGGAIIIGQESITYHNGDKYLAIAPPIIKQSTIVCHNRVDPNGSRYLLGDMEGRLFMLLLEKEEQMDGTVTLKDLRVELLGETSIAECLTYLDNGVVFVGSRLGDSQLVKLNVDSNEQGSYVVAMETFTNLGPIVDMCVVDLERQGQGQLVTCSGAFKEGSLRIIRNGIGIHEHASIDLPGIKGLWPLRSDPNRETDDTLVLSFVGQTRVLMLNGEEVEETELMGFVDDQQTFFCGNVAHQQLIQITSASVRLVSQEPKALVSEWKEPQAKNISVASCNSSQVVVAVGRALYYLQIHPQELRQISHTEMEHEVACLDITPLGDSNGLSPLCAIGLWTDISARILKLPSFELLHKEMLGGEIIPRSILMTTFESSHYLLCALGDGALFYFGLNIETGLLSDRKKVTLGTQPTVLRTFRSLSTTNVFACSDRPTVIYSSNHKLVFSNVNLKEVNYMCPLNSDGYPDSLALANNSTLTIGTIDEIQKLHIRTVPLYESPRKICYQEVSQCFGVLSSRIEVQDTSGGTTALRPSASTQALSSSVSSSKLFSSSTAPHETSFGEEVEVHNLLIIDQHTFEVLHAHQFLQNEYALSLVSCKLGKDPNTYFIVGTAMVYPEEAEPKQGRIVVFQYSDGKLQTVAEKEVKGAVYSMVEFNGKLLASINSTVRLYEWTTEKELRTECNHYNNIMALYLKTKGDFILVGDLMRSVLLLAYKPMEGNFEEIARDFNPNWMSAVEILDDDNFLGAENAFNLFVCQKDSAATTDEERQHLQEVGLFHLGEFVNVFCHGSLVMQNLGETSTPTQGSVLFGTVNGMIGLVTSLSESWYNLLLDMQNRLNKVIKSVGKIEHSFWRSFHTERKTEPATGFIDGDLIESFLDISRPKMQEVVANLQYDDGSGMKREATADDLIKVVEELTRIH

Row | SMILES | Dmax [1] [%] | remaining activity at up to 25 µM [2] [%] | DC50 [3] [nM] | Dmax [4] [%] | remaining activity (HEK-293T, read-out: WIZ Amax) [%] | DC50 [5] [nM] | Dmax (HEK-293T, read-out: % degradation of WIZ (100-Amax), 100 minus Amax; 293T cells) [%] | remaining activity (HEK-293T, read-out: WIZ Amax, DMSO-normalized, curve-fitted percentage of WIZ-HiBit remaining at 25 uM; 293T cells) [%]
1 | COc1ccc(CN2CCCC[C@H]2COc2ccc3c(c2)CN(C2CCC(=O)NC2=O)C3=O)cn1 (stereo partly drawn) [Compound I-50bf] | 50.9 | 49.1 | > 25000 |  |  |  |  | 
2 | CN(C)c1ncc(CN2CCCC[C@@H]2COc2ccc3c(c2)CN(C2CCC(=O)NC2=O)C3=O)cn1 (stereo partly drawn) [Compound I-50ar] | 78.2 | 21.8 | 1140 |  |  |  |  | 
3 | NS(=O)(=O)c1ccc(CN2CCCC[C@H]2COc2ccc3c(c2)CN(C2CCC(=O)NC2=O)C3=O)cc1 (stereo partly drawn) [Compound I-50de] |  |  |  | 58.5 | 41.5 | 18400 |  | 
4 | CCOC(=O)c1cccc2[nH]nc(CN3CCCC[C@H]3COc3ccc4c(c3)CN(C3CCC(=O)NC3=O)C4=O)c12 (stereo partly drawn) [Compound I-50au] | 24.2 | 75.8 | > 25000 |  |  |  |  | 
5 | Cc1cccc(-c2n[nH]cc2CN2CCCC[C@@H]2COc2ccc3c(c2)CN(C2CCC(=O)NC2=O)C3=O)c1 (stereo partly drawn) [Compound I-50dj] | 99.7 | 0.3 | 2450 |  |  |  |  | 
6 | O=C1CCC(N2Cc3cc(OC[C@@H]4CCCCN4Cc4ncccc4O)ccc3C2=O)C(=O)N1 (stereo partly drawn) [Compound I-50dg] | 16.1 | 83.9 | > 25000 |  |  |  |  | 
7 | COC(=O)c1ccc(Oc2ccc(CN3CCCC[C@@H]3COc3ccc4c(c3)CN(C3CCC(=O)NC3=O)C4=O)cc2)cc1 (stereo partly drawn) [Compound I-50bh] | 99.9 | 0.1 | 5 |  |  |  |  | 
8 | O=C1CCC(N2Cc3cc(OC[C@@H]4CCCCN4Cc4n[nH]c5ccc(Oc6cccnc6)cc45)ccc3C2=O)C(=O)N1 (stereo partly drawn) [Compound I-50af] | 57.2 | 42.8 | 21100 |  |  |  |  | 
9 | Cc1noc(C)c1CN1CCCC[C@@H]1COc1ccc2c(c1)CN(C1CCC(=O)NC1=O)C2=O (stereo partly drawn) [Compound I-50el] | 30.3 | 69.7 | > 25000 |  |  |  |  | 
10 | O=C1CCC(N2Cc3cc(OC[C@H]4CCCCN4Cc4nccn4Cc4ccccc4)ccc3C2=O)C(=O)N1 (stereo partly drawn) [Compound I-50ax] | 92.5 | 7.5 | 149 |  |  |  |  | 
11 | O=C1CCC(N2Cc3cc(OC[C@@H]4CCCCN4Cc4cccc(N5CCCC5)c4)ccc3C2=O)C(=O)N1 (stereo partly drawn) [Compound I-50aa] | 95.1 | 4.9 | 412 |  |  |  |  | 
12 | CCn1cc(CN2CCCC[C@@H]2COc2ccc3c(c2)CN(C2CCC(=O)NC2=O)C3=O)cn1 (stereo partly drawn) [Compound I-50eo] | 94 | 6 | 74 |  |  |  |  | 
13 | O=C1CCC(N2Cc3cc(OC[C@H]4CCCCN4Cc4ccccc4OCC(=O)N4CCCCC4)ccc3C2=O)C(=O)N1 (stereo partly drawn) [Compound I-50dq] | 71.2 | 28.8 | 770 |  |  |  |  | 
14 | CCN1CCOc2cccc(CN3CCCC[C@@H]3COc3ccc4c(c3)CN(C3CCC(=O)NC3=O)C4=O)c21 (stereo partly drawn) [Compound I-179, 3-(5-(((R)-1-((4-ethyl-3,4-dihydro-2H-benzo[b][1,4]oxazin-5-yl)methyl)piperidin-2-yl)methoxy)-1-oxoisoindolin-2-yl)piperidine-2,6-dione] |  |  | 5.7 |  |  |  | 73.9 | 26.1
15 | O=C1CCC(N2Cc3cc(OC[C@@H]4CCCCN4Cc4ccccc4OCCN4CCOCC4)ccc3C2=O)C(=O)N1 (stereo partly drawn) [Compound I-50ab] | 50.8 | 49.2 | > 25000 |  |  |  |  | 
16 | CC(C)N1CCC(CN2CCCC[C@H]2COc2ccc3c(c2)CN(C2CCC(=O)NC2=O)C3=O)CC1 (stereo partly drawn) [Compound I-50cb] | 74.5 | 25.5 | 5800 |  |  |  |  | 
17 | CN(C)Cc1ncc(-c2ccc(Oc3cc(Cl)cnc3CN3CCCC[C@@H]3COc3ccc4c(c3)CN(C3CCC(=O)NC3=O)C4=O)cc2)n1C (stereo partly drawn) [Compound I-50di] | 79 | 21 | 1180 |  |  |  |  | 
18 | NS(=O)(=O)c1ccc(CN2CCCC[C@@H]2COc2ccc3c(c2)CN(C2CCC(=O)NC2=O)C3=O)cc1 (stereo partly drawn) [Compound I-50ef] |  |  |  | 85.2 | 14.8 | 1460 |  | 
19 | N#Cc1cccc(CN2CCCC[C@H]2COc2ccc3c(c2)CN(C2CCC(=O)NC2=O)C3=O)c1 (stereo partly drawn) [Compound I-50bm] | 36 | 64 | > 25000 |  |  |  |  | 
20 | O=C1CCC(N2Cc3cc(OC[C@@H]4CCCCN4Cc4cn[nH]c4)ccc3C2=O)C(=O)N1 (stereo partly drawn) [Compound I-50cc] | 71.7 | 28.3 | 5970 |  |  |  |  | 
21 | Cn1c(CN2CCCC[C@@H]2COc2ccc3c(c2)CN(C2CCC(=O)NC2=O)C3=O)nc2ccccc21 (stereo partly drawn) [Compound I-50cw] | 39 | 61 | > 25000 |  |  |  |  | 

Continued, in another order:

Row | Dmax [1] [%] | remaining activity at up to 25 µM [2] [%] | DC50 [3] [nM] | Dmax [4] [%] | remaining activity (HEK-293T, read-out: WIZ Amax) [%] | DC50 [5] [nM] | SMILES | Dmax (HEK-293T, read-out: % degradation of WIZ (100-Amax), 100 minus Amax; 293T cells) [%] | remaining activity (HEK-293T, read-out: WIZ Amax, DMSO-normalized, curve-fitted percentage of WIZ-HiBit remaining at 25 uM; 293T cells) [%]
22 | 34.2 | 65.8 | > 25000 |  |  |  | CCc1ncc(C(=O)N2CCCC[C@H]2COc2ccc3c(c2)CN(C2CCC(=O)NC2=O)C3=O)s1 (stereo partly drawn) [Compound I-72jf] |  | 
23 | 59.4 | 40.6 | 13600 |  |  |  | N#Cc1ccccc1CN1CCCC[C@H]1COc1ccc2c(c1)CN(C1CCC(=O)NC1=O)C2=O (stereo partly drawn) [Compound I-50h] |  | 
24 | 34.7 | 65.3 | > 25000 |  |  |  | O=C1CCC(N2Cc3cc(OC[C@@H]4CCCCN4Cc4ccc[nH]c4=O)ccc3C2=O)C(=O)N1 (stereo partly drawn) [Compound I-50k] |  | 
25 | 49.1 | 50.9 | > 25000 |  |  |  | O=C1CCC(N2Cc3cc(OC[C@H]4CCCCN4Cc4ncc[nH]4)ccc3C2=O)C(=O)N1 (stereo partly drawn) [Compound I-50et] |  | 
26 | 12.4 | 87.6 | > 25000 |  |  |  | Cc1nnsc1CN1CCCC[C@@H]1COc1ccc2c(c1)CN(C1CCC(=O)NC1=O)C2=O (stereo partly drawn) [Compound I-50ep] |  | 
27 | 65.1 | 34.9 | 3430 |  |  |  | Cc1csc(CN2CCCC[C@@H]2COc2ccc3c(c2)CN(C2CCC(=O)NC2=O)C3=O)n1 (stereo partly drawn) [Compound I-151] |  | 
28 | 6.1 | 93.9 | > 25000 |  |  |  | O=C1CCC(N2Cc3cc(OC[C@@H]4CCCCN4C(=O)c4ccccc4Cn4cncn4)ccc3C2=O)C(=O)N1 (stereo partly drawn) [Compound I-72jx] |  | 
29 | 85.2 | 14.8 | 179 |  |  |  | Cn1nnc2cc(CN3CCCC[C@@H]3COc3ccc4c(c3)CN(C3CCC(=O)NC3=O)C4=O)ccc21 (stereo partly drawn) [Compound I-50y] |  | 
30 | 99.5 | 0.48 | 8.6 |  |  |  | CC(C)(C)OC(=O)N1CCc2cccc(CN3CCCC[C@@H]3COc3ccc4c(c3)CN(C3CCC(=O)NC3=O)C4=O)c21 (stereo partly drawn) [Compound I-110, Tert-butyl 7-(((2R)-2-(((2-(2,6-dioxopiperidin-3-yl)-1-oxoisoindolin-5-yl)oxy)methyl)piperidin-1-yl)methyl)indoline-1-carboxylate] |  | 
31 | 88.9 | 11.1 | 97 |  |  |  | COC(=O)c1ccc(Oc2ccc(CN3CCCC[C@H]3COc3ccc4c(c3)CN(C3CCC(=O)NC3=O)C4=O)cc2)cc1 (stereo partly drawn) [Compound I-50g] |  | 
32 | 0.3 | 99.7 | > 25000 |  |  |  | O=C1CCC(N2Cc3cc(OC[C@@H]4CCCCN4C(=O)CCn4c(=O)oc5ccccc54)ccc3C2=O)C(=O)N1 (stereo partly drawn) [Compound I-72jb] |  | 
33 | 4.8 | 95.2 | > 25000 |  |  |  | O=C1CCC(N2Cc3cc(OC[C@@H]4CCCCN4C(=O)CCC(=O)N4CCOCC4)ccc3C2=O)C(=O)N1 (stereo partly drawn) [Compound I-72eo] |  | 
34 | 97.5 | 2.52 | 48 |  |  |  | O=C1CCC(N2Cc3cc(OC[C@H]4CCCCN4Cc4ccc5ccccc5n4)ccc3C2=O)C(=O)N1 (stereo partly drawn) [Compound I-152] |  | 
35 | 24 | 76 | > 25000 |  |  |  | CN(C)c1cccc(C(=O)N2CCCC[C@H]2COc2ccc3c(c2)CN(C2CCC(=O)NC2=O)C3=O)c1 (stereo partly drawn) [Compound I-72gg] |  | 
36 | 13.7 | 86.3 | > 25000 |  |  |  | Cn1nccc1-c1cccc(C(=O)N2CCCC[C@H]2COc2ccc3c(c2)CN(C2CCC(=O)NC2=O)C3=O)c1 (stereo partly drawn) [Compound I-72gz] |  | 
37 | 52 | 48 | 19800 |  |  |  | Cc1c(-c2ccccc2)n[nH]c1C(=O)N1CCCC[C@H]1COc1ccc2c(c1)CN(C1CCC(=O)NC1=O)C2=O (stereo partly drawn) [Compound I-72by] |  | 
38 | 15.3 | 84.7 | 20 |  |  |  | O=C1CCC(N2Cc3cc(OC[C@H]4CCCCN4Cc4cccc5c4NC(=O)CO5)ccc3C2=O)C(=O)N1 (stereo partly drawn) [Compound I-180, 3-(1-oxo-5-(((R)-1-((3-oxo-3,4-dihydro-2H-benzo[b][1,4]oxazin-5-yl)methyl)piperidin-2-yl)methoxy)isoindolin-2-yl)piperidine-2,6-dione] |  | 
39 | 0 | 100 | > 25000 |  |  |  | N#CCCN1CCN(CC(=O)N2CCCC[C@H]2COc2ccc3c(c2)CN(C2CCC(=O)NC2=O)C3=O)CC1 (stereo partly drawn) [Compound I-72x] |  | 
40 | 6.8 | 93.2 | > 25000 |  |  |  | O=C1CCC(N2Cc3cc(OC[C@@H]4CCCCN4C(=O)c4cccc(N5CCCC5=O)c4)ccc3C2=O)C(=O)N1 (stereo partly drawn) [Compound I-72hf] |  | 
41 | 62.2 | 37.8 | 25 |  |  |  | COc1cc(CN2CCCC[C@@H]2COc2ccc3c(c2)CN(C2CCC(=O)NC2=O)C3=O)ccc1C#N (stereo partly drawn) [Compound I-192] |  | 
